# Test results published in patent US20150252370A1, “USE OF ATX INHIBITORS FOR TREATMENT OR PREVENTION OF INFLUENZA VIRUS A INFECTIONS” (Academia Sinica, priority 2014, published 2015).
# “Also recorded” adds a separate entry of the source.
# Key:
# human AXL = target: T1, human AXL (Homo sapiens, UniProt P30530); assay type: cell-based
# T1 construct: Human AXL (NM_021913.4) were PCR amplified using the primers human AXL forward; expressed in transfected cells
# T1 sequence (P30530 26-894): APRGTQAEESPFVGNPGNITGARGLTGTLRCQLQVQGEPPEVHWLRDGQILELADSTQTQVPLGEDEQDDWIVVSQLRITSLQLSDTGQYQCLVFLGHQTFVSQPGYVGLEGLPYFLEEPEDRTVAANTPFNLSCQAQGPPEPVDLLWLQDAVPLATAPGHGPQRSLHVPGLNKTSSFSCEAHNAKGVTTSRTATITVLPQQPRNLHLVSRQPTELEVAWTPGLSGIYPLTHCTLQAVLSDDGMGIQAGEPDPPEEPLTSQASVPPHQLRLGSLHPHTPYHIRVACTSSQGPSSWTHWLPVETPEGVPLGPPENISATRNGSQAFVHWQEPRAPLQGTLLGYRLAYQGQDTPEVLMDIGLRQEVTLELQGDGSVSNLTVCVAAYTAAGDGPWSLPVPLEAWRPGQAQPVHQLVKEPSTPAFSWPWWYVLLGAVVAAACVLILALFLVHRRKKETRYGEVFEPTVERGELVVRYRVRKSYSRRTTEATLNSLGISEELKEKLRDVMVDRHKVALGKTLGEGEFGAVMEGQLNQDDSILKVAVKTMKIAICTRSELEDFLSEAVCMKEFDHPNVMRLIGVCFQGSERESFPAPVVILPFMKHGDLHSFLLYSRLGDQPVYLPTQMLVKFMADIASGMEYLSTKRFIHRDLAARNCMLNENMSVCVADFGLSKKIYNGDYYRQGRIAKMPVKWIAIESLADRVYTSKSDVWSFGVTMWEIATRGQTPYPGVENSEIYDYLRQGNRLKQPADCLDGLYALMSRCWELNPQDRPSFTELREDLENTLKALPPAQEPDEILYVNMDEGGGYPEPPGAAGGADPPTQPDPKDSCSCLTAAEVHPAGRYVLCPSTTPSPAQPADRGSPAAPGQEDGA
# metastatic breast cancer = conditions: mouse models of metastatic breast cancer; cited from earlier work
# [1] = tested on: Influenza A virus (IAV) (A/WSN/33, H1N1); assay type: cell-based
structure (smiles),measurement,setting,value
"Nc1nc(Nc2ccc3c(c2)CCC(N2CCCC2)CC3)nn1-c1cc2c(nn1)-c1ccccc1CCC2 (stereo not shown) [R428, 1-(6,7-dihydro-5H-benzo[6,7]cyclohepta[1,2-c]pyridazin-3-yl)-N3-(7-(pyrrolidin-1-yl)-6,7,8,9-tetrahydro-5H-benzo[7]annulen-2-yl)-1H-1,2,4-triazole-3,5-diamine]",AXL autophosphorylation stimulated by Gas6,human AXL,block autophosphorylation
same,tumor spread and survival,metastatic breast cancer,block tumor spread and prolong survival
same,IAV replication (NP and NS1 protein expression),[1],blocked virus infection; also recorded: significantly inhibited influenza A virus infection; also recorded: inhibited IAV replication
same,time of addition at which R428 inhibits IAV replication,[1],"before or during the first hour, but not later"
